From patent publication US4975433A, “Aminomethyl derivatives of biologically active substances and enhanced delivery thereof across topical membranes” (priority 1989, dated 1990)
≈ marks a conversion by molar mass, not a printed value. Where “and” joins values, the source holds several entries; their conditions need not be identical. Equal entries are not always repeated. Where two headings read alike, the source gives them in different places. Marks after values point to notes of the source that are not given here. One block for each compound: values may come before it.

Key:
[1] = lipid and aqueous solubilities of 5-IDC and its prodrugs; assay type: physicochemical; conditions: for Solubility, IPM / solubility at 48 h: isopropyl myristate; for solubility: pH 5.5, water, apparent; for solubility at 48 h: organic solvent or mixture, read-out: Solubility, IPM
Description: The approximate aqueous solubilities were determined by the addition of 100 mg of solid to 1 ml distilled water (pH 5.5). Water was added until all the solid dissolved.
The lipid solubilities of 5-iodo-2'-deoxycytidine and its N-Mannich base prodrugs were determined in isopropyl myristate. Three suspensions of the drug or prodrugs were stirred for 48 hours and then filtered. The filtrates were then diluted with either methanol, for the parent drug or dry acetonitrile, for the N-Mannich base prodrugs. The concentration of compound in solution was determined by monitoring the UV absorption at 294 nm (ε=5.79×10^3 1/mole) for 5-IDC, 333 nm (ε=2.46×10^4) for the formamidine derivative and 296 nm for the derivatives. The aqueous solubilities were obtained as described above.

[2] = flux of theophylline in PG after first application of 5-IDC or prodrug (second application); assay type: in vitro ADME, hairless mice
Description: A suspension of theophylline in PG (Th/PG; 0.5 ml, 0.4M) was then applied to each diffusion cell. […] This phase of the diffusion cell experiment is labelled the second application.
The slopes for each phase of the plotted lines were obtained by linear regression analysis; the slopes were then divided by the surface area of the diffusion cells (4.9 cm^2) to obtain a value for flux (J) in mg/cm^2 /h. The reported fluxes are the average flux for the three cells.

[3] = solubility of 5-iodo-2'-deoxycytidine in various vehicles; assay type: physicochemical; conditions: for solubility: organic solvent or mixture
[4] = hydrolysis / stability of adenine and cytosine adducts followed by UV (Example 1); assay type: physicochemical; conditions: water, dilute aqueous solution, about 1×10^-4 mole/l, read-out: t1/2 of hydrolysis (converted)
Text: The methanol UV spectra of the adducts of cytosine and adenine were stable for up to 2 hr. The water UV spectrum of the mono-adduct of adenine 1b was essentially identical with adenine itself under the same conditions. […] The rates of hydrolysis of three of the adducts (1d, 1e and 2d) were followed by UV at about 1×10^-4 mole/1 by following the decrease in intensity of their respective UV max with time. Spectra were monitored until stable spectra were produced which in all cases were essentially identical with the parent purine or pyrimidine. Plots of At-At.infin. versus time were used to determine t 1/2. The hydrolyses of the adducts were also followed by ^1 H NMR spectroscopy. Solutions (DMSO-d6) of the adducts at about 30 mg/ml, were diluted with D2 O in a dropwise fashion until a 1:1 ratio of the two solvents was reached. Integrations (5 times) of the spectra were taken after each addition of D2 O. Comparison of the average of the integrations of the N--CH2 --N absorptions and the integrations of the C2 --H, C8 --H, C5 --H or C6 --H absorptions was used to quantitate the amount of decomposition.

[5] = hydrolysis of 5-IDC derivatives in pH 7.1 buffer; assay type: physicochemical; conditions: 24°, read-out: half-life (t1/2) of hydrolysis
Description: The hydrolysis of the prodrugs in pH 7.1 buffer (0.05M,=0.15) was monitored by UV spectroscopy at 294 nm, by measuring the appearance of 5-IDC. A plot of log (At -A.infin.) versus time was linear so first-order reaction kinetics were assumed. Each hydrolysis was performed in triplicate at a constant temperature of 24.0°±0.1° and the half-lives and rates of hydrolysis were obtained using the Guggenheim method. Stock solutions of the prodrugs were made in dry acetonitrile, and 0.1 ml of the solution was added to 3 ml of buffer in a cuvette.

[6] = cited from earlier work
[7] = delivery of theophylline, previous study of Sloan et al; conditions: from flux of previous study
[8] = delivery of 5-FU, previous data of Mollgaard et al; assay type: in vitro ADME, human
Description: The diffusion cell data previously reported for the delivery of 5-FU from PG (Mollgaard et al, supra), were analyzed and a flux of 7.8×10^-4 mg/cm^2.hr with a lag time of 17 hr was calculated. […] […]. […] Thus, the present study of delivery of 5-FU appears to be consistent with the observations of Mollgaard et al, supra.
. When the data for the diffusion of the best prodrug of 5-FU (1-butyryloxymethylderivative) described in Mollgaard et al, supra, were used to calculate a flux for that prodrug, a flux of 17.2×10^-4 mg/cm^2.hr was obtained. […]

[9] = cited from earlier work; remark: listed apart in the source
[10] = phosphate buffer, pH 7.1
[11] = lipid and aqueous solubilities of 5-FC and its derivatives; assay type: physicochemical; conditions: for solubility at 48 h: isopropyl myristate, organic solvent or mixture, read-out: Solubility, IPM
[12] = water, equilibrated three hours, 180 min; cited from earlier work
physchem = conditions: organic solvent or mixture
[13] = skins leached 120 hours, no methanol wash
Description: After this last sampling of the receptor phase (amount left in skin), the receptor phase was again changed. […] The cumulative amount of theophylline in the receptor phase was calculated as described above. This phase of the diffusion cell studies is termed the second application.
Several control studies were also performed. […] This was the baseline for the second application. […] Theophylline in PG was then applied to assess the effect of the methanol wash (used to remove the remaining donor phase from the first application) on the skin's permeability. […] The receptor phase was changed and a suspension of Th in PG was added as before.
The slopes for each phase of the plotted lines were obtained by linear regression analysis (r>0.990); the slopes were then divided by the surface area of the diffusion cells (4.9 cm^2) to obtain a value for flux (J) in mg/cm^2 /h. The reported fluxes are the average flux of the three diffusion cells.

[14] = cited from earlier work; remark: listed apart in the source
[15] = solubilities of prodrugs and parent drugs in selected solvents (Example 8); conditions: Solubility, suspensions sonicated for 3 hr

SMILES: O=c1nc(NCN2CCOCC2)ccn1CN1CCOCC1 [Compound 2d, Bis-N^4,1-(4'-morpholinyl)methylcytosine]
half-life at 100 µM [4]: ~180 min

SMILES: c1nc(NCN2CCOCC2)c2ncn(CN3CCOCC3)c2n1 [Compound 1d, Bis-N^6,9-(4'-morpholinyl)methyladenine]
half-life at 100 µM [4]: ~30 min

SMILES: Cn1c(=O)c2c(ncn2CO)n(C)c1=O [7-(hydroxymethyl)theophylline]
flux ([6]; not told): 11.1×10^-2 mg/cm^2.hr
times more effective than theophylline in delivering theophylline [7]: about 6.5 times

SMILES: CCCC(=O)OCn1cc(F)c(=O)[nH]c1=O [1-butyryloxymethylderivative]
times better than 5-FU in delivering 5-FU ([8]; from literature flux): 2.2 times
flux ([9]; not told): 17.2×10^-4 mg/cm^2.hr

SMILES: Cn1c(=O)c2[nH]cnc2n(C)c1=O [I, Theophylline]
flux for Th/PG, baseline [13]: 1.41±0.09×10^-3 mg/cm2 /h
flux ([6]; not told): 1.72±0.13×10^-2 mg/cm^2.hr

SMILES: CCCC(=O)OCn1cnc2c1c(=O)n(C)c(=O)n2C [7-butyryloxymethyl)theophylline]
flux ([6]; previous study (Sloan et al), IPM): 7.25×10^-2 mg/cm^2.hr
times more effective than theophylline in delivering theophylline [7]: 4.2 times

SMILES: c1nc(NCN2CCCCC2)c2ncn(CN3CCCCC3)c2n1 [Compound 1e, Bis-N^6,9-(1'-piperidinyl)methyladenine]
half-life at 100 µM [4]: ~5 min

Continued, in another order:

Solubility, IPM [1]: 0 M(× ^5)
Solubility, IPM ([1]; ±SD): 0 mg/ml(× 10^2)
solubility [1]: < 1000 µg/mL and < 2800 µM
increase of flux of theophylline from PG ([2]; after 5-IDC): 1.3 times
X-intercept ([2]; first application in IPM): 0.6 h
Flux of theophylline from PG after first application ([2]; first application in IPM, Th/PG 0.4 M, ±SD): 246 (17) mg/cm^2 /h × 10^3
solubility ([3]; 1-octanol, read-out: Solubility of 5-IDC, mole fraction): 0.96 mM
solubility ([3]; 1-propanol, read-out: Solubility of 5-IDC, mole fraction): 6.09 mM
Solubility of 5-IDC, mole fraction ([3]; IPM): 0 mole fraction (× 10^3)
solubility ([3]; eg, read-out: Solubility of 5-IDC, mole fraction): 89.2 mM
solubility ([3]; ethylene glycol, EG, ±SD, read-out: Solubility of 5-IDC): 31.5 mg/mL
solubility ([3]; formamide, For, ±SD, read-out: Solubility of 5-IDC): 56.9 mg/mL
solubility ([3]; formamide, read-out: Solubility of 5-IDC, mole fraction): 161 mM
solubility ([3]; 1-octanol, ±SD, read-out: Solubility of 5-IDC): 0.34 mg/mL
solubility ([3]; 1-propanol, ±SD, read-out: Solubility of 5-IDC): 2.15 mg/mL
solubility ([3]; pg, read-out: Solubility of 5-IDC, mole fraction): 55.7 mM
solubility ([3]; propylene glycol, PG, ±SD, read-out: Solubility of 5-IDC): 19.7 mg/mL
X-intercept, initial phase (IPM): 5.0 h
X-intercept, steady-state (IPM): 14.0 h
duration of initial phase (IPM): 19 h
duration of steady-state delivery (IPM): 11 h
SMILES: Nc1nc(=O)n([C@H]2C[C@H](O)[C@@H](CO)O2)cc1I [Compound 5-IDC, 5-iodo-2'-deoxycytidine]
conversion of 5-IDC to 5-IDU (diffusion cells, HPLC): no conversion of 5-IDC to 5IDU was detected

half-life [5]: 12.8 ± 0.6 min
solubility at 48 h [1]: 0.029 mM
solubility at 48 h ([1]; ±SD): 0.013 mg/mL
solubility [1]: 20000 µg/mL and 44000 µM
SMILES: O=c1nc(NCN2CCOCC2)c(I)cn1[C@H]1C[C@H](O)[C@@H](CO)O1 [XXIIIb, N^4-(1"-morpholinyl)methyl-5-iodo-2'-deoxycytidine hydrate]

Half-life of hydrolysis, cytosine derivatives [10]: 0.26(0.00) min
SMILES: CCN(CC)CNc1ccn(CN(CC)CC)c(=O)n1 [Cytosine (Et), Bis-N^4,1-(diethylamino)methylcytosine]

solubility ([11]; distilled water (pH 5.5), approximate, decomposing): 7000 µg/mL and 50000 µM
solubility at 48 h [11]: 0.039 mM
solubility at 48 h ([11]; ±SD): 0.005 mg/mL
solubility (physchem; 1-octanol): 0.42 mg/mL (≈ 3.25 mM)
solubility (physchem; dmf): 3.52 mg/mL (≈ 27.3 mM)
solubility (physchem; ethylene glycol): 20 mg/mL (≈ 155 mM)
solubility (physchem; ethylene glycol:formamide (1:1)): 17.5 mg/mL (≈ 135 mM)
solubility (physchem; ethylene glycol:formamide (4:1)): 17.9 mg/mL (≈ 139 mM)
solubility (physchem; formamide): 13.7 mg/mL (≈ 106 mM)
solubility (physchem; ipm): 0.0045 mg/mL (≈ 0.0349 mM)
solubility (physchem; pg): 10.8 mg/mL (≈ 83.7 mM)
SMILES: Nc1nc(=O)[nH]cc1F [Compound 5-FC, 5-fluorocytosine]
aqueous solubility, literature value [12]: 120 mM (≈ 15.5 mg/mL)

half-life [5]: 0.89 ± 0.06 min
Solubility, IPM ([1]; ±SD, 2880 min, hydrate): 1.6(0.5) mg/ml(× 10^2)
SMILES: O=c1nc(NCN2CCCCC2)c(I)cn1[C@H]1C[C@H](O)[C@@H](CO)O1 [XXIIb, N^4-(1"-piperidinyl)methyl-5-iodo-2'-deoxycytidine hydrate]

theoretical 24 hr value for 5-FU diffused ([8]; PG, 24 hr, 4.9 cm^2, calculated from literature flux and lag): 0.015 mg
solubility ([15]; isopropyl myristate, organic solvent or mixture, IPM): 0.0044 mg/mL (≈ 0.0338 mM)
solubility ([15]; propylene glycol, organic solvent or mixture, PG): 15.1 mg/mL (≈ 116 mM)
solubility ([15]; water): 26.2 mg/mL (≈ 201 mM)
SMILES: O=c1[nH]cc(F)c(=O)[nH]1 [VII, 5-Fluorouracil]
lag time ([9]; PG, calculated from literature data (Mollgaard et al)): 17 h
pKa [14]: 13.0
